According to ChEMBL document CHEMBL1157525, “The design and synthesis of potent and cell-active allosteric dual Akt 1 and 2 inhibitors devoid of hERG activity” (Bioorg Med Chem Lett, 2008):

Columns and labels:
[1] = biological target: T1, RAC-alpha serine/threonine-protein kinase (Homo sapiens, UniProt P31749); test: Inhibition of Akt1 by cellular assay
[2] = biological target: T2, RAC-beta serine/threonine-protein kinase (Homo sapiens, UniProt P31751); test: Inhibition of Akt2 by cellular assay
[3] = biological target: T1, RAC-alpha serine/threonine-protein kinase; test: Inhibition of Akt1
[4] = biological target: T2, RAC-beta serine/threonine-protein kinase; test: Inhibition of Akt2
[5] = biological target: Voltage-gated inwardly rectifying potassium channel KCNH2 (Homo sapiens, UniProt Q12809); test: Inhibition of human ERG in embryonic kidney cells by radioligand-binding competition assay
Voltage-gated inwardly rectifying potassium channel KCNH2, sequence (Q12809 whole entry): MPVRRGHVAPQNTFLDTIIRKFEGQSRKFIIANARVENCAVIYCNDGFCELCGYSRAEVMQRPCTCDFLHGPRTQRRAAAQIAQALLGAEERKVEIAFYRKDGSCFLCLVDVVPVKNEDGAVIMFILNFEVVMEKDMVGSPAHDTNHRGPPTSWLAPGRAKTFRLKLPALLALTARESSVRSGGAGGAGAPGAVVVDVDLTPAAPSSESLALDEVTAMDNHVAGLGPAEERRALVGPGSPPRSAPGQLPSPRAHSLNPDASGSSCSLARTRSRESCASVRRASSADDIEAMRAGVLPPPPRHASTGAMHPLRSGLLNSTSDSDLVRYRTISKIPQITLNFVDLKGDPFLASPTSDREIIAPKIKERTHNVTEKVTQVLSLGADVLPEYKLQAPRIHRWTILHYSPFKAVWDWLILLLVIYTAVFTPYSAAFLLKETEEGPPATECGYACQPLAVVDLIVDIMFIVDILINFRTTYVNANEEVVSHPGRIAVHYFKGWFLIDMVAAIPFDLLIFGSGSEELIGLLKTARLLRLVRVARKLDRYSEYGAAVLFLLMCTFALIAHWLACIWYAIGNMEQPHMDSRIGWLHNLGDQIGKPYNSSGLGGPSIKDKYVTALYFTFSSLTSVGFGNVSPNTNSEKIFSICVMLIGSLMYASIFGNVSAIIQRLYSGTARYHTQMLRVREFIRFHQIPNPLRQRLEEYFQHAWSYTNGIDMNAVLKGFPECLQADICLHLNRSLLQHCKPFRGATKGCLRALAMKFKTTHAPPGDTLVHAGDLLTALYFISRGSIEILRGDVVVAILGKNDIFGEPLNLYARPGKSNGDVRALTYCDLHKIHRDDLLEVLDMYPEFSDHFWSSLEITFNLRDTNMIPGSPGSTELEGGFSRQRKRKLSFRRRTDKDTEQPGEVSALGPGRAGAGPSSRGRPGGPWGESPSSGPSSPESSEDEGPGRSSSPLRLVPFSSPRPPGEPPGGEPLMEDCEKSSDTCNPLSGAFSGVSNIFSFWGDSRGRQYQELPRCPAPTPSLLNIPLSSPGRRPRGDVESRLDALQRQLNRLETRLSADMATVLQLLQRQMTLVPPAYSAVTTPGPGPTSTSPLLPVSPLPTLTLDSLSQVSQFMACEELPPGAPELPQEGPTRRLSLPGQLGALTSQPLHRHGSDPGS

T1 sequence (P31749 whole entry): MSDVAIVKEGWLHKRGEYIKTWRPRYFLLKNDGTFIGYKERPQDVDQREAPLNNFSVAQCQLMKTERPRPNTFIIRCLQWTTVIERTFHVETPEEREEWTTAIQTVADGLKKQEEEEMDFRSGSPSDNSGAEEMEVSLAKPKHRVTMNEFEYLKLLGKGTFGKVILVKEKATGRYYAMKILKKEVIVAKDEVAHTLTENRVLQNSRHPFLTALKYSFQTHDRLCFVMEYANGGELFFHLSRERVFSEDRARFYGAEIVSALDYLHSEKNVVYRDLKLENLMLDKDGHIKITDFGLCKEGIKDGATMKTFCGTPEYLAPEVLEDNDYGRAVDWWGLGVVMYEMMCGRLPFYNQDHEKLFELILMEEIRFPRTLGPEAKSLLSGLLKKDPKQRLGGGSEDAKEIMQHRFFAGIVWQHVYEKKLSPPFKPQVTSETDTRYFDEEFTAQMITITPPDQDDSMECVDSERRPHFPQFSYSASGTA
T2 sequence (P31751 whole entry): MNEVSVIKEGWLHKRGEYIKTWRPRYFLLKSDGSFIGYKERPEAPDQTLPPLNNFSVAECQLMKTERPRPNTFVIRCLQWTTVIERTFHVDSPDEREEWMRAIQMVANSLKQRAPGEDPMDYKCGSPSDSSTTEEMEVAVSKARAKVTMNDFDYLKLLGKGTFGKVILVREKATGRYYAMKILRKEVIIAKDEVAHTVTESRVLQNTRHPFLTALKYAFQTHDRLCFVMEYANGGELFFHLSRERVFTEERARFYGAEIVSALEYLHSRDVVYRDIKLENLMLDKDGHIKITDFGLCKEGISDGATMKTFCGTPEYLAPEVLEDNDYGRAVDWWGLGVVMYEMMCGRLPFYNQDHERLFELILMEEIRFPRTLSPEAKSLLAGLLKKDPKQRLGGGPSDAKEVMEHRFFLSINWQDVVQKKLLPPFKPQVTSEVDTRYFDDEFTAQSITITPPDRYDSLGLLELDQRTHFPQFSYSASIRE

| IC50 [1] [µM] | IC50 [2] [µM] | IC50 [3] [µM] | IC50 [4] [µM] | SMILES | IC50 [5] [µM] |
| --- | --- | --- | --- | --- | --- |
| 1.41 | 0.827 | – | – | CN1CCN(c2ccc3nc(-c4ccc(CN5CCC(c6nnc(-c7ccccn7)[nH]6)CC5)cc4)c(-c4ccccc4)nc3n2)CC1 | – |
| 0.052 | 0.192 | – | – | CN1CCN(c2ccc3nc(-c4ccccc4)c(-c4ccc(CN5CCC(c6nnc(-c7ncccn7)[nH]6)CC5)cc4)nc3n2)CC1 | – |
| 0.025 | 0.04 | – | – | CN1CCN(c2ncc3cc(-c4ccccc4)c(-c4ccc(CN5CCC(c6nnc(-c7ncccn7)[nH]6)CC5)cc4)nc3n2)CC1 | – |
| 0.018 | 0.092 | – | – | CN1CCN(c2ccc3nc(-c4ccccc4)c(-c4ccc(CN5CCC(c6nnc(-c7ccccn7)[nH]6)CC5)cc4)nc3n2)CC1 | – |
| 0.062 | 0.284 | 0.001 | 0.008 | O=c1ccc(-c2nnc(C3CCN(Cc4ccc(-c5nc6cc[nH]c(=O)c6cc5-c5ccccc5)cc4)CC3)[nH]2)c[nH]1 | > 10 |
| 0.04 | 0.159 | 0.003 | 0.016 | COc1ccc(-c2nnc(C3CCN(Cc4ccc(-c5nc6cc[nH]c(=O)c6cc5-c5ccccc5)cc4)CC3)[nH]2)cn1 | 1.22 |
| 0.072 | 0.19 | – | – | OCCN1CCN(c2ccc3nc(-c4ccccc4)c(-c4ccc(CN5CCC(c6nc(-c7ncccn7)n[nH]6)CC5)cc4)nc3n2)CC1 | – |
| 0.026 | 0.165 | 0.004 | 0.033 | Nc1ccc(-c2nnc(C3CCN(Cc4ccc(-c5nc6cc[nH]c(=O)c6cc5-c5ccccc5)cc4)CC3)[nH]2)cn1 | 10 |
| 0.038 | 0.18 | – | – | Nc1ccc(-c2nnc(C3CCN(Cc4ccc(-c5nc6nc(N7CCN(CCO)CC7)ncc6cc5-c5ccccc5)cc4)CC3)[nH]2)cn1 | – |
| 0.088 | 0.185 | – | – | CN1CCN(c2ncc3cc(-c4ccccc4)c(-c4ccc(CN5CCC(c6nnc(-c7cc[n+]([O-])cc7)[nH]6)CC5)cc4)nc3n2)CC1 | 9.8 |
| 0.07 | 0.225 | – | – | CN1CCN(c2ccc3nc(-c4ccccc4)c(-c4ccc(CN5CCC(c6nnc(-c7ccc(N)nc7)[nH]6)CC5)cc4)nc3n2)CC1 | – |
| 0.037 | 0.08 | – | – | OCCN1CCN(c2ncc3cc(-c4ccccc4)c(-c4ccc(CN5CCC(c6nc(-c7ncccn7)n[nH]6)CC5)cc4)nc3n2)CC1 | > 10 |
| 0.044 | 0.405 | 0.004 | 0.021 | O=c1[nH]ccc2nc(-c3ccc(CN4CCC(c5nnc(-c6cnccn6)[nH]5)CC4)cc3)c(-c3ccccc3)cc12 | – |
| 0.104 | 0.116 | – | – | CN(C)CCN1CCN(c2ccc3nc(-c4ccccc4)c(-c4ccc(CN5CCC(c6nc(-c7ncccn7)n[nH]6)CC5)cc4)nc3n2)CC1 | > 10 |
| 0.067 | 0.146 | – | – | [O-][n+]1ccc(-c2nnc(C3CCN(Cc4ccc(-c5nc6nc(N7CCN(CCO)CC7)ncc6cc5-c5ccccc5)cc4)CC3)[nH]2)cc1 | > 10 |
| 0.01 | 0.039 | 0.004 | 0.004 | CN(C)CCN1CCN(c2ncc3cc(-c4ccccc4)c(-c4ccc(CN5CCC(c6nnc(-c7ccccn7)[nH]6)CC5)cc4)nc3n2)CC1 | 2.1 |
| 0.115 | 0.23 | – | – | Nc1ccc(-c2nnc(C3CCN(Cc4ccc(-c5nc6nc(N7CCN(CCO)CC7)ccc6nc5-c5ccccc5)cc4)CC3)[nH]2)cn1 | – |
| 0.01 | 0.043 | – | – | CN(C)CCN1CCN(c2ccc3nc(-c4ccccc4)c(-c4ccc(CN5CCC(c6nnc(-c7ccccn7)[nH]6)CC5)cc4)nc3n2)CC1 | – |
| 0.035 | 0.13 | – | – | CN(C)CCN1CCN(c2ncc3cc(-c4ccccc4)c(-c4ccc(CN5CCC(c6nnc(-c7ncccn7)[nH]6)CC5)cc4)nc3n2)CC1 | 4.8 |
| 0.127 | 0.284 | – | – | O=c1ccc(-c2nnc(C3CCN(Cc4ccc(-c5nc6nc(N7CCN(CCO)CC7)ncc6cc5-c5ccccc5)cc4)CC3)[nH]2)c[nH]1 | 6.8 |
| 0.02 | 0.084 | – | – | CN1CCN(c2ncc3cc(-c4ccccc4)c(-c4ccc(CN5CCC(c6nnc(-c7ccc(N)nc7)[nH]6)CC5)cc4)nc3n2)CC1 | 6.1 |
| 0.016 | 0.224 | 0.0035 | 0.026 | O=C1NCCc2nc(-c3ccc(CN4CCC(c5nnc(-c6ccccn6)[nH]5)CC4)cc3)c(-c3ccccc3)cc21 | 2.5 |
| 0.071 | 0.188 | – | – | CN1CCN(c2ncc3cc(-c4ccccc4)c(-c4ccc(CN5CCC(c6nnc(-c7ccc(=O)[nH]c7)[nH]6)CC5)cc4)nc3n2)CC1 | – |
| 0.069 | 0.098 | – | – | CN(C)CCN1CCN(c2ncc3cc(-c4ccccc4)c(-c4ccc(CN5CCC(c6nnc(-c7ccc(=O)[nH]c7)[nH]6)CC5)cc4)nc3n2)CC1 | 0.8 |
| 0.023 | 0.069 | 0.007 | 0.044 | O=c1[nH]ccc2nc(-c3ccc(CN4CCC(c5nnc(-c6ncccn6)[nH]5)CC4)cc3)c(-c3ccccc3)cc12 | > 10 |
| 0.037 | 0.14 | – | – | CN(C)CCN1CCN(c2ncc3cc(-c4ccccc4)c(-c4ccc(CN5CCC(c6nnc(-c7ccc(N)nc7)[nH]6)CC5)cc4)nc3n2)CC1 | – |
| 0.013 | 0.048 | – | – | OCCN1CCN(c2ccc3nc(-c4ccccc4)c(-c4ccc(CN5CCC(c6nnc(-c7ccccn7)[nH]6)CC5)cc4)nc3n2)CC1 | – |
| 0.033 | 0.068 | – | – | CN(C)CCN1CCN(c2ncc3cc(-c4ccccc4)c(-c4ccc(CN5CCC(c6nnc(-c7cc[n+]([O-])cc7)[nH]6)CC5)cc4)nc3n2)CC1 | 7.9 |
